Data taken from US20240327381A1, “Compounds and Compositions for Selective Degradation of Engineered Proteins” (Celgene Corporation, priority 2023, published 2024).
Like-named read-outs stand apart in the source and are kept apart here. Each block holds one molecule with its values, some of them ahead of it.

Key:
[1] = molecular target: T1, IKZF1 ZNF2_ZNF3 Q1F degron-tagged CD19 CAR (Homo sapiens, UniProt Q13422, Q146F); experiment: Degradation of Q1F degron-tagged CD19 CAR in Jurkat cells (flow cytometry of CAR levels); assay type: cell-based
T1 construct: ZNF2_ZNF3 Q1F degron (GERPFFCNQCGASFTQKGNLLRHIKLHSGEKPFKCHLCNYACRRRDALTGHLRTHS); fused on or other part: anti-CD19 scFv, CD28 transmembrane domain, 4-1BB costimulatory domain, CD3 zeta signaling domain (the CAR that carries the degron), and Nluc
Description: Q1F degron-targeting compounds were screened in Jurkat cells engineered to express a IKZF1 ZNF2_ZNF3 Q1F. The cell line was generated with lentiviral vectors containing CD19 CARs tagged with IKZF1 ZNF2_ZNF3 QIF Nluc, which were transduced into Jurkat cells. The CD19 CAR comprised an anti-CD19 scFv, a CD28 transmembrane domain, a 4-1BB costimulatory domain, a CD3ζ signaling domain, and a ZNF2_ZNF3 Q1F degron (GERPFFCNQCGASFTQKGNLLRHIKLHSGEKPFKCHLCNYACRRRDALTGHLRTHS; SEQ ID NO: 1; Q1F substitution underlined). Transduced cells were treated with a titration of each small molecule or no drug and then incubated at 37° C. for 18 hours. Cells were washed and stained with appropriate staining reagent to measure CAR levels. The cells were incubated at 4° C. in the staining reagents for 20 mins and then washed 3 times before being read on the flow cytometer. CAR levels were normalized to cells that had not been treated with drug. EC50 and Ymin values were calculated using the resulting titration curve. This identified small molecules that potently degraded the Q1F degron-tagged CARs (Table 1).
(§1) To determine the EC50 value of a compound for the degradation of a given substrate (concentration of compound that achieves half the maximum degradation observed), a four-parameter logistic model (sigmoidal dose-response model) (FIT=(A+{(B−A)/1+[(C/x)D]})) where C is the inflection point (EC50), D is the […], and A and B are the low and high limits of the fit, respectively) was used. All substrate degradation curves were processed and evaluated using ActivityBase (IDBS), a data analysis software package. Ymax is the % protein degraded (Ymin=100−Ymax and is minimum percent protein remaining).

Helios = molecular target: T2, Helios (Homo sapiens, UniProt Q9UKS7); experiment: Helios degradation in Jurkat/Helios/HiBit cells (Nano-Glo luminescence); assay type: cell-based; conditions: 18 hr, read-out: Helios Jurkat Hibit IC50
T2 construct: endogenous in cells; host or cells: Jurkat cells, CRISPR/Cas9 knock-in of HiBit at the IKZF2 locus
Procedure: For Helios, a stable Jurkat cell line was engineered using CRISPR/Cas9 to insert an in-frame HiBit tag into the carboxy-terminal reading frame of the IKZF2 gene. The sequence of human Helios is shown below:
Test compounds were transferred to 1536 well plates using an acoustic dispenser, and Jurkat/Helios/HiBit cells in DMEM/10% FCS were plated at 10,000 cells/well in a final volume of 5 μL. Cells were incubated at 37 C, 95% RH for 18 hr. Luciferase activity was measured by adding 2 μL/well of Nano-Glo reagent (Promega), incubating at RT for 30 min, and reading luminescence on a microtiter plate reader.
as §1

[2] = Jurkat cells expressing CD19 CAR tagged with IKZF1 ZNF2_ZNF3 Q1F; 18 hours at 37° C.; CAR levels normalized to untreated cells; read-out: Q1F Jurkat IC50
[3] = Ymax is the % protein degraded; Jurkat cells expressing Q1F degron-tagged CD19 CAR; 18 hours; read-out: Q1F Jurkat-YMax
[4] = Jurkat, 18 h, read-out: Q1F Jurkat-YMax

T2 sequence (Q9UKS7 whole entry): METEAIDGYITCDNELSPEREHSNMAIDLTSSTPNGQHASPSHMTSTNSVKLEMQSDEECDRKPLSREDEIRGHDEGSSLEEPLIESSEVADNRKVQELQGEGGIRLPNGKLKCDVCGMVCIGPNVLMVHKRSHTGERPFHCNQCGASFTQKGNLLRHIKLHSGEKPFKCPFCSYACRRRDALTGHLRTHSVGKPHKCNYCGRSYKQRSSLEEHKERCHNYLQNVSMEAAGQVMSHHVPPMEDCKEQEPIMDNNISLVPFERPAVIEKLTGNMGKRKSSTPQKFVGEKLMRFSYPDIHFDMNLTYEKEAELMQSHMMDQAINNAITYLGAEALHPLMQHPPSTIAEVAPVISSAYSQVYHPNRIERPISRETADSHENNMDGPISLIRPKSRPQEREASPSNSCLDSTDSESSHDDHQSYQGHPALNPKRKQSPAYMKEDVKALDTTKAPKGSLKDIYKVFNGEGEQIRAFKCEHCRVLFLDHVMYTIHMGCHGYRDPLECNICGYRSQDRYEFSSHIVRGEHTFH
T2 sequence (Q96SW2 whole entry, further chain): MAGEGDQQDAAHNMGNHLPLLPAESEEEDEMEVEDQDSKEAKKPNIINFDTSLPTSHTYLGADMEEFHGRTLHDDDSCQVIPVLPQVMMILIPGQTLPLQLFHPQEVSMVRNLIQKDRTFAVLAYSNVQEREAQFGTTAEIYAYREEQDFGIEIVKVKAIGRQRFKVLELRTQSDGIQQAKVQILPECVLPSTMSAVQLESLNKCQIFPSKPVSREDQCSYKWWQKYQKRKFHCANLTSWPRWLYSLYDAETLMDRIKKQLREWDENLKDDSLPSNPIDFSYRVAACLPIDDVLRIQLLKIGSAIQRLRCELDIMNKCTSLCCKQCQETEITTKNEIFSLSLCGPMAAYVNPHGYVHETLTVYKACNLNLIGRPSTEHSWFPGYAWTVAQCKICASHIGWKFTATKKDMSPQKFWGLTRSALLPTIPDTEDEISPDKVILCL
T2 sequence (Q16531 whole entry partner): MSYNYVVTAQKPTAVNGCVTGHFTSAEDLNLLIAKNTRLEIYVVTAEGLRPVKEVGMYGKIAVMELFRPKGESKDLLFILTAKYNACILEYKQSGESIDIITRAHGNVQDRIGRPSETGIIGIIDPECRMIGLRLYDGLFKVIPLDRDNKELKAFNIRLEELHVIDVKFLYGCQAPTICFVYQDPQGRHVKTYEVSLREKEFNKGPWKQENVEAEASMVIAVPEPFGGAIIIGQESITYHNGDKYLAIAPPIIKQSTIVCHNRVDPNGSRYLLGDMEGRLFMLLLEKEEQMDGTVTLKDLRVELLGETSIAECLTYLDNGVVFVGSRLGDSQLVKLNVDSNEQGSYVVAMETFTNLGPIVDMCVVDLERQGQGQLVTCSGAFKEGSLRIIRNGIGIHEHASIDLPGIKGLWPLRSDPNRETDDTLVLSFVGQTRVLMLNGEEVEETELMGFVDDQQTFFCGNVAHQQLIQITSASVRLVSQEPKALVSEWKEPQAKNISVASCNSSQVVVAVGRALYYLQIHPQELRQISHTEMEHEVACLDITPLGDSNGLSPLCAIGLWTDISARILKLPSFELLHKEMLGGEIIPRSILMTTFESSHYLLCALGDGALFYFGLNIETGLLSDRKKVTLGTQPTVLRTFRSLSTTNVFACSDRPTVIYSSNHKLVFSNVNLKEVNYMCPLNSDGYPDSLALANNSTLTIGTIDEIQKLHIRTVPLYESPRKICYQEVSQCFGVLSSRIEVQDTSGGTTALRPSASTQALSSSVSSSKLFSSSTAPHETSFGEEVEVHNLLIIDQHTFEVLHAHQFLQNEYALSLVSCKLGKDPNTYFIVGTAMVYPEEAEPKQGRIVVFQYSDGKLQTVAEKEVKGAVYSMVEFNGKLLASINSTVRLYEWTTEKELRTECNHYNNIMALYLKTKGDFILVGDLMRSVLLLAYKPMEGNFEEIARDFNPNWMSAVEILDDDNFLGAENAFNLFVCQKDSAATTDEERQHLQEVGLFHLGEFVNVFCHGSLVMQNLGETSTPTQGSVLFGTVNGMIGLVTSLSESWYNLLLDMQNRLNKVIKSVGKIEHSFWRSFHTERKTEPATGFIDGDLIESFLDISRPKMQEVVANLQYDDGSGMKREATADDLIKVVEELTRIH
T1 sequence (Q13422 whole entry Q146F, the tested form may be a part): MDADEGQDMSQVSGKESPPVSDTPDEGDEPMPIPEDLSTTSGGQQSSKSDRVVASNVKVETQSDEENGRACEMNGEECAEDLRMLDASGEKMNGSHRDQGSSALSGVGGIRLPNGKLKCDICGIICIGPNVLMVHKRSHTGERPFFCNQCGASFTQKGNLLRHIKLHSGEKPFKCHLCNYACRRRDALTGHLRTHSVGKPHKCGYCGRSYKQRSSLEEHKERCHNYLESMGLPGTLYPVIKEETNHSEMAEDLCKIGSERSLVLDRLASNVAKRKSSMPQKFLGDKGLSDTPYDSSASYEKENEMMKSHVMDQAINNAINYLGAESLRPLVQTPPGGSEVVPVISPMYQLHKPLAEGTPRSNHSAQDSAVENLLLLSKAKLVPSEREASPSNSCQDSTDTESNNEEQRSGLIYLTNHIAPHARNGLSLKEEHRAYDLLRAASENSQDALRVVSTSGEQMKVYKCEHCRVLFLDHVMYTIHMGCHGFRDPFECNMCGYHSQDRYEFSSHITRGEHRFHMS

SMILES: O=C1CCC(N2Cc3c(cc(F)c(C4(O)CCN(Cc5cccc(-n6cccn6)c5)CC4)c3F)C2=O)C(=O)N1 (stereo not drawn) [Compound 15, 3-(5-(1-(3-(1H-pyrazol-1-yl)benzyl)-4-hydroxypiperidin-4-yl)-4,6-difluoro-1-oxoisoindolin-2-yl)piperidine-2,6-dione]
DC50 [1, 2]: 4.94 nM | Dmax [1, 3]: 79.9% | DC50 (Helios): ≥ 10000 nM

SMILES: O=C1CCC(N2Cc3c(cc(F)c(C4(O)CCN(Cc5cc(C(F)(F)F)cc(C6CC6)n5)CC4)c3F)C2=O)C(=O)N1 (stereo not drawn) [Compound 17, 3-(5-(1-((6-cyclopropyl-4-(trifluoromethyl)pyridin-2-yl)methyl)-4-hydroxypiperidin-4-yl)-4,6-difluoro-1-oxoisoindolin-2-yl)piperidine-2,6-dione]
DC50 [1, 2]: 28.9 nM | Dmax [1, 3]: 69.2% | DC50 (Helios): ≥ 10000 nM

DC50 [1, 2]: 0.576 nM | Dmax [1, 3]: 93.4% | DC50 (Helios): ≥ 10000 nM
SMILES: O=C1CCC(N2Cc3c(cc(F)c(C4CCN(Cc5ccc6ncsc6c5)CC4)c3F)C2=O)C(=O)N1 (stereo not drawn) [Compound 18, 3-(5-(1-(benzo[d]thiazol-6-ylmethyl)piperidin-4-yl)-4,6-difluoro-1-oxoisoindolin-2-yl) piperidine-2,6-dione]

SMILES: O=C1CCC(N2Cc3c(cc(F)c(C4(O)CCN(Cc5ccc(C(F)F)cc5)CC4)c3F)C2=O)C(=O)N1 (stereo not drawn) [Compound 19, 3-(5-(1-(4-(difluoromethyl)benzyl)-4-hydroxypiperidin-4-yl)-4,6-difluoro-1-oxoisoindolin-2-yl)piperidine-2,6-dione]
DC50 [1, 2]: 5.41 nM | Dmax [1, 3]: 83.3% | DC50 (Helios): ≥ 10000 nM

SMILES: O=C1CCC(N2Cc3c(cc(F)c(C4(O)CCN(Cc5ccc(C(F)(F)F)cc5O)CC4)c3F)C2=O)C(=O)N1 (stereo not drawn) [Compound 22, 3-(4,6-difluoro-5-(4-hydroxy-1-(2-hydroxy-4-(trifluoromethyl)benzyl)piperidin-4-yl)-1-oxoisoindolin-2-yl)piperidine-2,6-dione]
DC50 [1, 2]: 14.3 nM | Dmax [1, 3]: 80% | DC50 (Helios): ≥ 10000 nM

SMILES: O=C1CCC(N2Cc3c(cc(F)c(C4(O)CCN(Cc5cccc(C(F)(F)F)c5)CC4)c3F)C2=O)C(=O)N1 (stereo not drawn) [Compound 26, 3-(4,6-difluoro-5-(4-hydroxy-1-(3-(trifluoromethyl)benzyl)piperidin-4-yl)-1-oxoisoindolin-2-yl)piperidine-2,6-dione]
DC50 [1, 2]: 6.42 nM | Dmax [1, 3]: 78.2% | DC50 (Helios): ≥ 10000 nM

SMILES: Cc1ccc(CN2CCC(O)(c3c(F)cc4c(c3F)CN(C3CCC(=O)NC3=O)C4=O)CC2)cc1F (stereo not drawn) [Compound 28, 3-(4,6-difluoro-5-(1-(3-fluoro-4-methylbenzyl)-4-hydroxypiperidin-4-yl)-1-oxoisoindolin-2-yl)piperidine-2,6-dione]
DC50 [1, 2]: 4.78 nM | Dmax [1, 3]: 79.4% | DC50 (Helios): ≥ 10000 nM

SMILES: O=C1CCC(N2Cc3c(cc(F)c(C4(O)CCN(Cc5ccc6ccccc6n5)CC4)c3F)C2=O)C(=O)N1 (stereo not drawn) [Compound 29, 3-(4,6-difluoro-5-(4-hydroxy-1-(quinolin-2-ylmethyl)piperidin-4-yl)-1-oxoisoindolin-2-yl)piperidine-2,6-dione]
DC50 [1, 2]: 6.42 nM | Dmax [1, 3]: 87% | DC50 (Helios): ≥ 10000 nM

SMILES: O=C1CCC(N2Cc3c(cc(F)c(C4(O)CCN(Cc5ccc(C(F)(F)F)cc5Br)CC4)c3F)C2=O)C(=O)N1 (stereo not drawn) [Compound 31, 3-(5-(1-(2-bromo-4-(trifluoromethyl)benzyl)-4-hydroxypiperidin-4-yl)-4,6-difluoro-1-oxoisoindolin-2-yl)piperidine-2,6-dione]
DC50 [1, 2]: 14 nM | Dmax [1, 3]: 82.8% | DC50 (Helios): ≥ 10000 nM

SMILES: O=C1CCC(N2Cc3c(cc(F)c(C4(O)CCN(Cc5ccccc5C(F)(F)F)CC4)c3F)C2=O)C(=O)N1 (stereo not drawn) [Compound 32, 3-(4,6-difluoro-5-(4-hydroxy-1-(2-(trifluoromethyl)benzyl)piperidin-4-yl)-1-oxoisoindolin-2-yl)piperidine-2,6-dione]
DC50 [1, 2]: 9.54 nM | Dmax [1, 3]: 80.2% | DC50 (Helios): ≥ 10000 nM

SMILES: O=C1CCC(N2Cc3c(cc(F)c(C4(O)CCN(CC5CCCCC5)CC4)c3F)C2=O)C(=O)N1 (stereo not drawn) [Compound 33, 3-(5-(1-(cyclohexylmethyl)-4-hydroxypiperidin-4-yl)-4,6-difluoro-1-oxoisoindolin-2-yl)piperidine-2,6-dione]
DC50 [1, 2]: 192 nM | Dmax [1, 3]: 60.4% | DC50 (Helios): ≥ 10000 nM

SMILES: Cc1cc(-c2cc3c(cc2F)C(=O)N(C2CCC(=O)NC2=O)C3)nc(N)c1C (stereo not drawn) [Compound 34, 3-(5-(6-amino-4,5-dimethylpyridin-2-yl)-6-fluoro-1-oxoisoindolin-2-yl) piperidine-2,6-dione]
DC50 [1, 2]: 7.43 nM | Dmax [1, 4]: 91.7% | DC50 (Helios): ≥ 10000 nM

SMILES: O=C1CCC(N2Cc3cc(C4(O)CCN(Cc5ccc6ncsc6c5)CC4)c(F)cc3C2=O)C(=O)N1 (stereo not drawn) [Compound 35, 3-(5-(1-(benzo[d]thiazol-6-ylmethyl)-4-hydroxypiperidin-4-yl)-6-fluoro-1-oxoisoindolin-2-yl) piperidine-2,6-dione]
DC50 [1, 2]: 144 nM | Dmax [1, 3]: 63.3% | DC50 (Helios): ≥ 10000 nM

SMILES: COc1cccc(CN2CCC(O)(c3c(F)cc4c(c3F)CN(C3CCC(=O)NC3=O)C4=O)CC2)c1 (stereo not drawn) [Compound 36, 3-(4,6-difluoro-5-(4-hydroxy-1-(3-methoxybenzyl)piperidin-4-yl)-1-oxoisoindolin-2-yl)piperidine-2,6-dione]
DC50 [1, 2]: 3.77 nM | Dmax [1, 3]: 77.7% | DC50 (Helios): ≥ 10000 nM

SMILES: COc1ccc(CN2CCC(O)(c3c(F)cc4c(c3F)CN(C3CCC(=O)NC3=O)C4=O)CC2)nc1 (stereo not drawn) [Compound 37, 3-(4,6-difluoro-5-(4-hydroxy-1-((5-methoxypyridin-2-yl)methyl)piperidin-4-yl)-1-oxoisoindolin-2-yl)piperidine-2,6-dione]
DC50 [1, 2]: 33.2 nM | Dmax [1, 3]: 62.5% | DC50 (Helios): ≥ 10000 nM

SMILES: COc1cccc(CN2CCC(O)(c3c(F)cc4c(c3F)CN(C3CCC(=O)NC3=O)C4=O)CC2)n1 (stereo not drawn) [Compound 38, 3-(4,6-difluoro-5-(4-hydroxy-1-((6-methoxypyridin-2-yl)methyl)piperidin-4-yl)-1-oxoisoindolin-2-yl)piperidine-2,6-dione]
DC50 [1, 2]: 24.5 nM | Dmax [1, 3]: 70.7% | DC50 (Helios): ≥ 10000 nM

SMILES: Cc1nc(C)c(S(=O)(=O)N(C)CCN2CCC(O)(c3c(F)cc4c(c3F)CN(C3CCC(=O)NC3=O)C4=O)CC2)s1 (stereo not drawn) [Compound 39, N-[2-[4-[2-(2,6-dioxo-3-piperidyl)-4,6-difluoro-1-oxo-isoindolin-5-yl]-4-hydroxy-1-piperidyl]ethyl]-N,2,4-trimethyl-thiazole-5-sulfonamide]
Dmax [1, 4]: 58.9% | DC50 ([1]; read-out: Q1F Jurkat IC50; Jurkat cells expressing CD19 CAR tagged with IKZF1 ZNF2_ZNF3 Q1F; 18 hours at 37° C.; CAR levels normalized to untreated cells): 93.8 nM | DC50 (Helios): ≥ 10000 nM

SMILES: CN(CCN1CCC(O)(c2c(F)cc3c(c2F)CN(C2CCC(=O)NC2=O)C3=O)CC1)S(=O)(=O)c1ccccc1 (stereo not drawn) [Compound 40, N-[2-[4-[2-(2,6-dioxo-3-piperidyl)-4,6-difluoro-1-oxo-isoindolin-5-yl]-4-hydroxy-1-piperidyl]ethyl]-N-methyl-benzenesulfonamide]
DC50 [1, 2]: 67.7 nM | Dmax [1, 3]: 60% | DC50 (Helios): ≥ 10000 nM

SMILES: O=C1CCC(N2Cc3c(cc(F)c(C4(O)CCN(Cc5n[nH]c6ccccc56)CC4)c3F)C2=O)C(=O)N1 (stereo not drawn) [Compound 41, 3-[4,6-difluoro-5-[4-hydroxy-1-(1H-indazol-3-ylmethyl)-4-piperidyl]-1-oxo-isoindolin-2-yl] piperidine-2,6-dione]
DC50 [1, 2]: 95.3 nM | Dmax [1, 3]: 66.2% | DC50 (Helios): ≥ 10000 nM

SMILES: O=C1CCC(N2Cc3c(cc(F)c(C4(O)CCN(Cc5ccc6cn[nH]c6c5)CC4)c3F)C2=O)C(=O)N1 (stereo not drawn) [Compound 42, 3-[4,6-difluoro-5-[4-hydroxy-1-(1H-indazol-6-ylmethyl)-4-piperidyl]-1-oxo-isoindolin-2-yl]piperidine-2,6-dione]
DC50 [1, 2]: 4.39 nM | Dmax [1, 3]: 87.7% | DC50 (Helios): ≥ 10000 nM

SMILES: Cc1ccc(CN2CCC(O)(c3c(F)cc4c(c3F)CN(C3CCC(=O)NC3=O)C4=O)CC2)cc1C (stereo not drawn) [Compound 43, 3-[5-[1-[(3,4-dimethylphenyl)methyl]-4-hydroxy-4-piperidyl]-4,6-difluoro-1-oxo-isoindolin-2-yl]piperidine-2,6-dione]
DC50 [1, 2]: 2.75 nM | Dmax [1, 3]: 80.2% | DC50 (Helios): ≥ 10000 nM
